pIC50: −log10 of the molar value. Like-named read-outs stand apart in the source and are kept apart here.

In experiment [1] the test system is isolated Langendorff rat heart. Description: inotropic and vascular activities in the isolated Langendorff rat heart preparation (CVIH). To be noted: isolated perfused rat heart. The procedure: TEST FOR INOTROPIC, CHRONOTROPIC, AND VASCULAR ACTIVITIES IN THE ISOLATED LANGENDORFF RAT HEART PREPARATION (CARDIOVASCULAR ISOLATED HEART - CVIH)
Male rats (400-600 gms) are pretreated with 2000 units Na heparin (Parke-Davis) and anesthetized with Na pentobarbital (50 mg/kg, Butler Co.) administered intraperitoneally. Once anesthetized, the rat heart is rapidly excised, the ascending aorta fitted to the aorta perfusion cannula, and secured with a ligature. The coronary arteries are perfused initially at a rate of about 15 ml/min for two to three minutes, after which they are perfused at constant pressure of 70 mm Hg and temperature of 37° C. The electrocardiogram (ECG) is recorded using two platinum electrodes positioned at the base and apex of the left ventricle (LV). The LV is instrumented via the mitral valve with a 4F Millar catheter tip pressure transducer. The catheter is advanced to the apex then withdrawn slightly. Once properly positioned, the catheter is anchored to the perfusion cannulae with an alligator clip. A second heart is excised, cannulated, and perfused by the same method outlined above. Both hearts are tested in parallel. The standard physiological salt solution (PSS) is a modified Krebs Henseleit bicarbonate buffer of the following composition in mM concentration: NaCl, 127; NaHCO^3, 25; dextrose, 5.5; Na Pyruvate, 2.0; KCl, 4.7; MgSO^4, 1.1; KH 2PO^4, 1.2; CaCl^2 ·2H^2, 2.5; CaNa^2 EDTA, 0.05.
A 30-minute stabilization period is observed before starting the test protocol.
A microprocessor control system is used as a servo mechanism which permits coronary perfusion pressure (CPP) and drug concentration to be maintained constant independent of changes in coronary flow. The level at which CPP and drug concentration are maintained can be changed by commands communicated through the microprocessor keyboard. Dose-response curves are carried out by perfusing concentrated drug solution (DC) at rates proportional to total coronary flow (CFT). Drug concentrations are increased by proportionate increases in the rate of DC infusion over CFT via the microprocessor keyboard. The proportional flow rates for DC:CFT are about 0.00005:1 at the low end and 0.0015:1 at the high end of the dose response curve.
Dose-response curves encompassing at least two log units are carried out in one-half log increments starting at a subthreshold dose and ending at a dose which produces near maximal response.
Measurements for CVIH are maximum positive first derivative of LVP (LV+dP/dtmax), heart rate (HR), and coronary flow (CF). Units are: LV+dP/dtmax, millimeters of mercury/second (mm Hg/sec); HR, beats/minute (bpm) and CF, milliliters/minute (ml/min). LV+dP/dtmax is derived from the LVP signal by a differential amplifier and recorded. HR is calculated from the ECG strip chart recording and CF is calculated by recording analog outputs from pumps 1 and 2. Outputs from pump #1 =CFT and the output from pump #2 =CF for heart B (CFB). CF for heart A (CFA) is calculated ([…]). All pumps are calibrated weekly or when pump tubing is replaced.
Compounds are solubilized in DMSO and diluted with water when possible. EC^25 data are obtained from data that is digitized and averaged in a conventional manner.

For experiment [2], the target named is dihydropyridine receptor. Put plainly: inhibition of [3H]-nitrendipine binding in rat brain homogenate. The settings on record: read-out: IC50 (index of dihydropyridine receptor affinity; inhibition of [3H]-nitrendipine binding). An excerpt:
*Index of dihydropyridine receptor affinity: IC50 for inhibition of
[^3 H]--nitrendipine binding in rat brain homogenate.

Experiment [3] relates to isolated Langendorff rat heart. Description: inotropic and vascular activities in the isolated Langendorff rat heart preparation (CVIH). To be noted: LV+dP/dtmax; isolated perfused rat heart; EC20 instead of EC25; read-out: EC20 Contractility.
Experiment [4] deals with anesthetized dog. Description: in vivo myocardial inotropic activity in the anesthetized dog. To be noted: 1 mg/kg, femoral vein, pentobarbital anesthetized dog. The procedure:
TEST FOR IN VIVO MYOCARDIAL INOTROPIC ACTIVITY IN THE ANESTHETIZED DOG
Adult mongrel dogs of either sex are anesthetized with pentobarbital, 35 mg/kg, IV, and are maintained under anesthesia with a continuous infusion of pentobarbital, 3.5 mg/kg/hr. The trachea is intubated, but the animals are permitted to breathe spontaneously. A cannula is inserted into the femoral vein for administering test agents. A Millar catheter tip pressure transducer or a fluid filled catheter is inserted into the ascending aorta via the femoral artery for measuring pressure. A Millar catheter tip pressure transducer is passed into the left ventricle via the left carotid artery for measuring left ventricular blood pressure. Needle electrodes are placed subcutaneously for recording a lead II electrocardiogram. Before administering test agents, control data is acquired over a period of at least thirty minutes.
The test agent is dissolved in dimethylacetamide. Each dose is administered in a volume of 0.5 ml over a period of one minute. Appropriate vehicle controls are also administered.

[5] abbreviates: LV+dP/dtmax, read-out: EC25 Contractility.
[6] abbreviates: coronary flow, read-out: EC25 Flow.

As usually defined, the EC25 is the concentration at which the effect reaches the 25% level. The term pIC50 denotes the negative decadic logarithm of the IC50, by convention in mol/L. Take `CCOC(=O)C1=C(C)N/C(=C\C(=O)c2ccccc2)[C@@H](C(=O)c2ccccc2)[C@@H]1c1ccccc1C(F)(F)F` (relative stereo) [Example 9, (4α,5β,6Z)-(±)-Ethyl-5-benzoyl-1,4,5,6-tetrahydro-2-methyl-6-(2-oxo-2-phenylethylidene)-4-[2-trifluoromethyl)phenyl]3-pyridinecarboxylate]: the results for the EC25 in experiment [1] (setting [5]) and in experiment [1] (setting [6]) were 1200 nM and 400 nM, respectively. In addition, the pIC50 in experiment [2] was 6.96.
In the case of `CCOC(=O)C1=C(C)N/C(=C\C(=O)c2ccc(F)cc2)[C@@H](C(=O)OCC)[C@@H]1c1ccccc1C(F)(F)F` (relative stereo) [Example 4, (2Z,3α,4β)-Diethyl-2-[2-(4-fluorophenyl)-2-oxoethylidene]-1,2,3,4-tetrahydro-6-methyl-4-[2-(trifluoromethyl)phenyl]-3,5-pyridinedicarboxylate], the EC25 in experiment [1] (setting [5]) was greater than 3000 nM; in experiment [1] (setting [6]), 300 nM. Moreover, the pIC50 in experiment [2] is 7.28.
For `CCOC(=O)[C@@H]1/C(=C/C(=O)c2ccccc2)NC2=C(C(=O)CCC2)[C@H]1c1ccccc1C(F)(F)F` (relative stereo) [Example 10], in that order: 2000 nM, 1400 nM and less than 6.00.
In the case of `CCOC(=O)C1=C(C)N/C(=C\C(=O)c2ccccc2)C(C(=O)OCC)C1c1ccccn1` (racemic) [Example 16, (2Z,3α,4β)-(±)-Diethyl-1,2,3,4-tetrahydro-6-methyl-2-[2-oxo-2-phenylethylidene]-4-[2-pyridyl]-3,5-pyridinedicarboxylate], the EC25 in experiment [1] (setting [5]) and in experiment [1] (setting [6]) was 1000 nM throughout. Besides, the pIC50 in experiment [2] was 7.60.
Consider `CCOC(=O)C1=C(C)N/C(=C\C(=O)c2ccc(N(C)C)cc2)[C@@H](C(=O)OCC)[C@@H]1c1ccccc1C(F)(F)F` (relative stereo) [Example 6, (2Z,3α,4β)-(±) -Diethyl-1,2,3,4-tetrahydro-6-methyl-2-[2-oxo-2-4-(dimethylamino)phenyl)ethylidene]-4-[2-(trifluoromethyl)phenyl]-3,5-pyridine-dicarboxylate], for which the EC25 was greater than 3000 nM in experiment [1] (setting [5]) and 200 nM in experiment [1] (setting [6]).
Consider `CCOC(=O)C1=C(C)N/C(=C\C(=O)c2ccc(Cl)cc2)[C@@H](C(=O)OCC)[C@@H]1c1ccccc1C(F)(F)F` (relative stereo) [Example 3, (2Z,3α,4β)-Diethyl-2-[2-(4-chlorophenyl)-2-oxoethylidene]-1,2,3,4-tetrahydro-6-methyl-4-[2-(trifluoromethyl)phenyl]-3,5-pyridinedicarboxylate], for which the EC25 in experiment [1] (setting [5]) and in experiment [1] (setting [6]) was less than 100 nM each time. For the same molecule, the negative logarithm of the IC50 (pIC50) in experiment [2] is 6.72.
On to `CCOC(=O)C1=C(C)N/C(=C\C(=O)c2ccc(C)cc2)[C@@H](C(=O)OCC)[C@@H]1c1ccccc1C(F)(F)F` (relative stereo) [Example 5, (2Z,3α,4β)-Diethyl-2-[2-(4-methylphenyl)-2-oxoethylidene]-1,2,3,4-tetrahydro-6-methyl-4-[2(trifluoromethyl)phenyl]-3,5-pyridinedicarboxylate], for which the figures for the EC25 in experiment [1] (setting [5]) and in experiment [1] (setting [6]) were greater than 3000 nM and 130 nM, respectively. Besides, in experiment [2], the pIC50 was 6.44.
As a reminder, the EC20 is the concentration needed for an effect of 20%. With `CCOC(=O)[C@@H]1/C(=C2\CCc3ccccc3C2=O)NC(C)=C(C#N)[C@H]1c1ccccc1C(F)(F)F` (relative stereo) [Example 11], the EC25 in experiment [1] (setting [6]) was 1000 nM. The negative logarithm of the IC50 (pIC50) in experiment [2] is less than 6.00. In experiment [3], the EC20 worked out at 1000 nM.
“(2Z,3α,4β)-(±)-Diethyl-1,2,3,4-tetrahydro-6-methyl-2-[2-oxo-2-phenylethylidene]-4-[2-nitrophenyl-3,5-pyridinedicarboxylate [Example 13]”: the EC25 in experiment [1] (setting [5]) and in experiment [1] (setting [6]) was 1000 nM throughout. The pIC50 in experiment [2] was 7.41.
For the molecule `CCOC(=O)C1=C(C)N/C(=C\C(=O)c2ccccc2)[C@@H](C(=O)OCC)[C@@H]1c1cccc([N+](=O)[O-])c1` (relative stereo) [Example 14, (2Z,3α,4β)-(±)-Diethyl-1,2,3,4-tetrahydro-6-methyl-2-[2-oxo-2-phenylethylidene]-4-[3-nitrophenyl]-3,5-pyridinedioarboxylate], the EC25 in experiment [1] (setting [5]) and in experiment [1] (setting [6]) was 1000 nM in each case. For the same molecule, in experiment [2], the pIC50 was 7.07.
As to `CCOC(=O)[C@H]1/C(=C/C(=O)c2ccccc2)NC(C)=C([N+](=O)[O-])[C@@H]1c1ccccc1C(F)(F)F` (relative stereo) [Example 7, (2Z,3α,4β)-(±)-1,2,3,4-Tetrahydro-6-methyl-5-nitro-2-[2-oxo-2-phenylethylidene]-4-[2-(trifluoromethyl)phenyl]-3-pyridinedicarboxylic acid ethyl ester], the EC25 in experiment [1] (setting [5]) was greater than 3000 nM; in experiment [1] (setting [6]), 100 nM. The pIC50 in experiment [2] is 6.89.
For `CCOC(=O)C1=C(C)N/C(=C\C(=O)c2ccccc2)[C@@H](C(=O)OCC)[C@@H]1c1ccccc1C(F)(F)F` (relative stereo) [Example 1, (2Z,3α,4β)-(±)-Diethyl-1,2,3,4-tetrahydro-6-methyl-2-(2-oxo-2-phenylethylidene)-4-[2-(trifluoromethyl)-phenyl]-3,5-pyridinedicarboxylate], in that order: 100 nM, 300 nM and 6.55.
Consider `CCOC(=O)C1=C(C)NC(=C2CCc3ccccc3C2=O)[C@@H](C(=O)OCC)[C@@H]1c1ccccc1C(F)(F)F` (relative stereo) [Example 12], for which the pIC50 in experiment [2] is less than 6.00.
In the case of `CCOC(=O)C1=C(C)N/C(=C\C(=O)c2ccccc2)[C@@H](C(=O)OCC)[C@@H]1c1cccc(Cl)c1Cl` (relative stereo) [Example 15, (2Z,3α,4β)-(±)-Diethyl-1,2,3,4-tetrahydro-6-methyl-2-[2-oxo-2-phenylethylidene]-4-2,3-dichlorophenyl]-3,5-pyridinedicarboxylate], the EC25 in experiment [1] (setting [5]) and in experiment [1] (setting [6]) was 1000 nM throughout. The pIC50 in experiment [2] was 6.74.
Regarding `CCOC(=O)C1=C(C)N/C(=C\C(=O)c2ccncc2)[C@@H](C(=O)OCC)[C@@H]1c1ccccc1C(F)(F)F` (relative stereo) [Example 2], the EC25 in experiment [1] (setting [5]) was greater than 3000 nM. For the same molecule, the EC25 in experiment [1] (setting [6]) was less than 100 nM. The pIC50 in experiment [2] was 7.70. Further, in experiment [4], the “decrease in blood pressure” value was determined as 21%, the increase in contractility is 99% and the “increase in heart rate” value was 67%.
On to `CC1=C([N+](=O)[O-])[C@H](c2ccccc2C(F)(F)F)[C@@H](C(=O)c2ccccc2)/C(=C/C(=O)c2ccccc2)N1` (relative stereo) [Example 8, [trans-(Z)]-2-[3-Benzoyl-3,4-dihydro-6-methyl-5-nitro-4-[2-(trifluoromethyl)phenyl]-2-(1H)pyridinylidene]1-phenylethanone], for which the EC25 in experiment [1] (setting [5]) was greater than 3000 nM; in experiment [1] (setting [6]) it was 300 nM. Besides, the pIC50 in experiment [2] was less than 6.00.

For the origin of these results see patent US4732898A, “2-(2-aryl-2-oxoalkylidene) analogs of-3,5-pyridinedicarboxylic acid dialkyl esters useful for treatment of cardiovascular disorders” (Warner-Lambert Company, priority 1987, dated 1988).
